Source: article PMC2692205 (Chembiochem : a European journal of chemical biology, 2008)

Target: SaDUF62 (Salinispora arenicola, UniProt A8M783)
Test: biochemical

Sequence of SaDUF62 (A8M783 whole entry): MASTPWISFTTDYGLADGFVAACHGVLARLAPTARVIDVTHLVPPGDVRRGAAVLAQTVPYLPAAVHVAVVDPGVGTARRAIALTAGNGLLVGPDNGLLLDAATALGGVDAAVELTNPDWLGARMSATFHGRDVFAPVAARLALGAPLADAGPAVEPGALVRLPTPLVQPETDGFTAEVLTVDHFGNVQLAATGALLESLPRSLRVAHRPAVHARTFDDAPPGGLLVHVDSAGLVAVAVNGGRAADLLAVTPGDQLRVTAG

Cl [chloride]
Ki: 1000 µM
